From patent US20230365568A1, “PLK1 POLO BOX DOMAIN INHIBITORS AND METHOD OF TREATING CANCER” (The United States of America,as represented by the …, priority 2020, published 2023)
Like-named read-outs stand apart in the source and are kept apart here. Marks after values point to notes of the source that are not given here.

What was measured:
PBD of Plk1 = PBD of Plk1 (Homo sapiens (Human), UniProt P53350); experiment: Fluorescence polarization (FP)-based PBD inhibition assay, Plk1; assay type: binding
Sequence of PBD of Plk1 (P53350 326-603): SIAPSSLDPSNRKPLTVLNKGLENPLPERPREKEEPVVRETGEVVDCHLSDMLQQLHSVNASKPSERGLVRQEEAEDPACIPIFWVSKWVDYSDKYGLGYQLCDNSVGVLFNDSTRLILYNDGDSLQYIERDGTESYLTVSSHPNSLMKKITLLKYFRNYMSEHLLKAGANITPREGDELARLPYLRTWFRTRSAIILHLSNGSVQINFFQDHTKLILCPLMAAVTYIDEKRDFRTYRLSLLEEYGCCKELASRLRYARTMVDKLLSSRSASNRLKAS
Method: FP assays were carried out essentially as described previously (Qian, ibid). […] All experiments were performed in triplicate for each sample.
PBD Fluorescence Polarization (FP) Binding Assays for Plk1 specificity. […] All experiments were performed in triplicate for each sample.

HeLa cells = experiment: Mitotic arrest and antiproliferation in HeLa cells (DAPI staining, cell counts); assay type: cell-based; conditions: for population of rounded cells with mitotically arrested or apoptotic chromosome morphologies: 25 μM, 12 h; for induction of mitotic arrest (rounded cells with apoptotic or aberrant chromosome morphologies): 100 μM
Method: HeLa cells were cultured as recommended by the American Type Culture Collection (ATCC). […] Immunostaining was carried out using anti-Plk1 (Santa Cruz Biotechnology, Santa Cruz, CA), anti-Cep63 (MilliporeSigma), anti-CREST (Antibodies Incorp, Davis, CA), and anti-α-tubulin (Sigma, St. Louis, MO) antibodies.
(§1) To quantify fluorescence signal intensities, images were acquired under the same settings and the images obtained after the maximum-intensity projection of z-stacks were analyzed using the Zeiss ZEN v2.1 software (Carl Zeiss Microscopy, LLC). All the quantifications were performed with randomly chosen fields from at least three independent experiments. All values are given as mean±s. D. P values were calculated by unpaired t test from the mean data of each group in Graph Pad Prism (***P<0.001). The statistical details including the definitions and value of n (e.g., number of experimental replicates, cells, etc.) And standard deviations are provided herein.

[1] = test system: multiple myeloma-derived L363 cells; experiment: MTS cell proliferation assay in L363 cells; assay type: cell-based; conditions: 48 h treatment, read-out: Cell efficacy, GI50 ± sd
Method: MTS Assay. […] 96™ AQueous One Solution Cell Proliferation Assay (MTS) kit (Promega, WI). Briefly, asynchronously growing L363 cells cultured in a 96-well plate were treated with the indicated compounds for 48 h.

[2] = Microsomal metabolic stability, rat liver microsomes (RLM)
full-length human Plk1 = full-length human Plk1 (Homo sapiens (Human), UniProt P53350); experiment: ELISA-based Plk1 PBD-binding inhibition assay; conditions: Plk1 PBD; n = 3 unless noted
Sequence of full-length human Plk1 (P53350 whole entry): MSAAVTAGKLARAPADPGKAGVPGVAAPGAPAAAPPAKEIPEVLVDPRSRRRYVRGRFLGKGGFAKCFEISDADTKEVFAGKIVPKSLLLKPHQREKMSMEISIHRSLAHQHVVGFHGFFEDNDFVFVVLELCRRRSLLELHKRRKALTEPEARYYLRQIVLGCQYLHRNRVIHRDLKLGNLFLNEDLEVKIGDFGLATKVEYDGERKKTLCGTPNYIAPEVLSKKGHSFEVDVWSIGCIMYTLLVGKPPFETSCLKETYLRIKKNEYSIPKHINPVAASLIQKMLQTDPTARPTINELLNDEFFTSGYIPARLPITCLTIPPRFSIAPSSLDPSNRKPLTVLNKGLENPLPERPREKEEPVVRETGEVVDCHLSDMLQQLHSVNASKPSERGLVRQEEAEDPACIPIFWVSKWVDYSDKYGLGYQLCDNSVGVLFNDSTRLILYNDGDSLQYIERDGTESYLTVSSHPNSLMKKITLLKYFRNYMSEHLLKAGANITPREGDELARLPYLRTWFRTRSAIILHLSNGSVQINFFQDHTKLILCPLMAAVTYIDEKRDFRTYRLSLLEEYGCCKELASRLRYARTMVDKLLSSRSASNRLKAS
Method: An ELISA-based PBD-binding inhibition assay was performed essentially as described previously. […] The wells were washed once with PBS+0.05% Tween20 (PBST) and incubated with 200 μl of PBS plus 1% BSA (blocking buffer) for 1 h to prevent non-specific binding. HEK293A lysates expressing HA-EGFP-Plk1 were prepared in a TBSN [20 mM Tris-HCl (pH 8.0), 150 mM NaCl, 0.5% NP-40, 5 mM EGTA, 2 mM MgCl2, 1.5 mM EDTA, and protease inhibitor cocktail (Roche)]+20% DMSO buffer (˜20 μg total lysates in 100 μl buffer), mixed with the indicated amount of the competitors (p-T78 peptide and its derivative compounds) for 30 min, provided onto the biotinylated peptide-coated ELISA wells, and then incubated with constant rocking for 1 h at 25° C. Following the incubation, ELISA plates were washed 5 times with PBST. To detect bound HA-EGFP-Plk1, the plates were probed for 2 h with 100 μl/well of anti-HA antibody at a concentration of 0.5 μg/ml in the blocking buffer and then washed 5 times. The plates were further probed for 1 h with 100 μl/well of HRP-conjugated secondary antibody (GE Healthcare) at a 1:1,000 dilution in the blocking buffer. The plates were washed 5 times with PBST and incubated with 100 μl/well of 3,3′,5,5′-tetramethylbenzidine solution (Sigma-Aldrich, St. Louis, MO) as substrate until a desired absorbance was reached. The reactions were stopped by the addition of 100 μl/well of stop solution (Cell Signaling Technology, Danvers, MA). The optical density (O.D.) was measured at 450 nm by using a Perkin-Elmer Enspire Multimode Plate reader (PerkinElmer, Inc., Boston, MA). Data obtained from more than three independent experiments were analyzed by GraphPad (San Diego, CA) Prism software version 7.
ELISA-based PBD-binding Inhibition Assay. […] The reaction products were measured at 450 nm by using a Perkin-Elmer Enspire Multimode Plate reader (PerkinElmer, Inc., Boston, MA). Data obtained from more than three independent experiments were analyzed by GraphPad (San Diego, CA) Prism software version 7.

[3] = Stability in human liver microsomes; assay type: in vitro ADME; conditions: for half-life: read-out: t1/2 Human LM
[4] = Stability in mouse liver microsomes; assay type: in vitro ADME; conditions: for half-life: read-out: t1/2 Mouse LM
[5] = Stability in rat liver microsomes (Table 10); assay type: in vitro ADME; conditions: for half-life: read-out: t1/2 Rat LM
[6] = Stability in human cytosol; assay type: in vitro ADME; conditions: for half-life: read-out: t1/2 Human cytosol
[7] = Stability in mouse cytosol; assay type: in vitro ADME; conditions: for half-life: read-out: t1/2 Mouse cytosol
Stability in rat cytosol = assay type: in vitro ADME; conditions: for half-life: read-out: t1/2 Rat cytosol
[8] = test system: Plk1 localization to centrosomes and kinetochores in HeLa cells; experiment: Immunostaining of Plk1 localization and spindle morphology in HeLa cells; assay type: cell-based; conditions: for inhibition at 100 µM: Homo sapiens
Method: HeLa cells were cultured as recommended by the American Type Culture Collection (ATCC). Asynchronously growing cells were treated with control DMSO or the indicated concentration of 143. To reveal chromosome morphologies, cells were treated with 4′,6-diamidino-2-phenylindole (DAPI), fixed, and subjected to confocal microscopy. Immunostaining was carried out using anti-Plk1 (Santa Cruz Biotechnology, Santa Cruz, CA), anti-Cep63 (MilliporeSigma), anti-CREST (Antibodies Incorp, Davis, CA), and anti-α-tubulin (Sigma, St. Louis, MO) antibodies. Confocal images were acquired using a Zeiss LSM780 equipped with a plan-apochromat 63× (N.A. 1.4) oil-immersion objective lens, 34-channel GaAsP spectral detector (Carl Zeiss Microscopy, LLC.), and 8-bit, 0.5-μm z-steps.
as §1
To directly examine whether the observed mitotic arrest was the consequence of inhibiting Plk1 PBD function, immunostaining analysis was carried out to determine the ability of intracellular Plk1 to localize to centrosomes and kinetochores, an event that requires PBD-mediated protein-protein interaction (Lee et al., Trends Pharmacol. Sci. 36, 858-877 (2015); and Elia et al., Cell 115, 83-95 (2003)). […] A short treatment time (i.e., 2 h), which was intended to minimize a potential indirect effect of these inhibitors, was sufficient to delocalize greater than 70% of Plk1 signals from centrosomes (marked by anti-Cep63 signals) and 90% of those from kinetochores (marked by anti-CREST signals).

[9] = In vitro stability in mice (mouse liver microsome assay); assay type: in vitro ADME; conditions: liver microsomes, pH 7.4, read-out: t1/2 in vitro
Method: The reaction was stopped by an aliquot of 200 μL of ice-cold acetonitrile after 60 min. After centrifugation at 14 000×g for 10 min, a 5 μL aliquot of the supernatant was injected into a UHPLC-[…]. […] A trace amount of the subsequent glucuronide of the demethylated metabolite was also seen in the serum, as it could be promptly excreted from the liver to the bile, once generated, and can then undergo enterohepatic circulation through which the demethylated product is reabsorbed to the circulation. This could also serve as an explanation for the increased demethylated metabolite at the last time point.

[10] = In vivo mouse pharmacokinetics, intraperitoneal; conditions: mice
Method: The National Cancer Institute Animal Care and Use Committee approved all animal experiments conducted in this study.
In the in vivo mouse pharmacokinetics study, 6-8-week-old male C57BL/6 mice were selected for metabolite profiling. In brief, 200 μL/20 g mice of WA (20 mg/kg dissolved in 5% DMSO and 5% Tween 80-contained saline) was administered intraperitoneally to mice. Control mice were treated with saline containing 5% DMSO and 5% Tween 80 alone. […] Blood samples were collected by retro-orbital bleeding at 4 h postdose. After centrifugation for 10 min at 14 000×g, serum was obtained and prepared by mixing 20 μL serum with 180 μL 50% aqueous acetonitrile. After centrifugation at 14 000×g for 20 min, a 5 μL aliquot of the supernatants was injected into a Waters UPLC-ESI-QTOFMS system (Waters Corporation, Milford, MA).

Row | Molecule | Solub. (Aqueous solubility; aqueous solubility) | t1/2 (min, RLM) ([2]; rat liver microsomes) | induction of mitotic arrest (rounded cells with apoptotic or aberrant chromosome morphologies) (HeLa cells) | half-life [3] | half-life [4] | half-life [5] | half-life [6] | half-life [7] | half-life (Stability in rat cytosol) | further results
1 | PLHST [6b] | – | – | – | – | – | – | – | – | – | activity in FP-based assay (PBD of Plk1): no detectable activity
2 | O=c1c2cc(F)ccc2n2c(=S)[nH]nc2n1CCc1ccncc1 [compound 85] | 10.9 µg/mL | >30 min | – | – | – | – | – | – | – | population of rounded cells with mitotically arrested or apoptotic chromosome morphologies (HeLa cells): induced Plk1 delocalization and mitotic arrest at a level similar to those of compound 75; GI50 [1]: 3.11 µM
3 | CCCn1c(=O)c2ccccc2n2c(=S)[nH]nc12 [compound 21, 4-propyl-1-thioxo-2,4-dihydro-[1,2,4]triazolo[4,3-a]quinazolin-5(1H)-one] | 21.3 µg/mL | – | lacked a detectable level of cellular response | > 2 h | > 2 h | > 2 h | > 2 h | > 2 h | > 2 h | IC50 (full-length human Plk1): 1.03 ± 0.08 µM; half-life ([2]; rat liver microsomes): > 0.5 h
4 | C[C@H]1C[C@@H]1n1c(=O)c2cc(F)ccc2n2c(=S)[nH]nc12 [compound 80] | 13.2 µg/mL | >30 min | – | – | – | – | – | – | – | t1/2 Human LM [3]: 0.8472 h; t1/2 Mouse LM [4]: 1.7515 h; t1/2 Rat LM [5]: >2 h; t1/2 Human cytosol [6]: >2 h; t1/2 Mouse cytosol [7]: >2 h; t1/2 Rat cytosol (Stability in rat cytosol): >2 h; PAMPA: 188 ×10⁻⁶ cm/s
5 | CCCn1c(=O)c2ccccc2n2c(SC)nnc12 [compound 143, 1-(methylthio)-4-propyl-[1,2,4]triazolo[4,3-a]quinazolin-5(4H)-one] | – | – | – | 0.28 h | 0.0628 h | 0.157 h | > 2 h | > 2 h | > 2 h | IC50 (full-length human Plk1): > 50 µM; spindle bipolarity ([8]; 100 μM): significantly compromised; inhibition at 100 µM ([8]; 100 μM, read-out: inhibition of Plk1 localization to centrosomes): ~20%; inhibition at 100 µM ([8]; 100 μM, read-out: inhibition of Plk1 localization to kinetochores): ~50%; half-life at 20 µM [9]: 0.189 ± 0.0582 h; half-life ([10]; male, C57BL/6, mouse, serum, ip, 20 mg/kg, in vivo, intraperitoneal, read-out: t1/2 in vivo): 0.479 ± 0.138 h; metabolites in serum ([10]; ≥15 min post-injection): both the hydroxylated and demethylated products were detected in the serum
6 | CCCn1c(=O)c2cc(F)ccc2n2c(SC)nnc12 [compound 144, 7-fluoro-1-(methylthio)-4-propyl-[1,2,4]triazolo[4,3-a]quinazolin-5(4H)-one] | – | – | induced mitotic arrest but at a somewhat reduced level | 0.241 h | 0.176 h | 0.439 h | > 2 h | > 2 h | > 2 h | –
7 | NCCCn1c(=O)c2cc(F)ccc2n2c(=S)[nH]nc12 [compound 68] | – | – | – | – | – | – | – | – | – | t1/2 Human LM [3]: >2 h; t1/2 Mouse LM [4]: >2 h; t1/2 Rat LM [5]: 1.7728 h; t1/2 Human cytosol [6]: >2 h; t1/2 Mouse cytosol [7]: >2 h; t1/2 Rat cytosol (Stability in rat cytosol): >2 h; Solub. (Aqueous solubility; Free base): 27 µg/mL; Solub. (Aqueous solubility; TFA salt): > 43 µg/mL; t1/2 (min, RLM) ([2]; Free base): >30^c >30^d min; t1/2 (min, RLM) ([2]; TFA salt): >30^c >30^d min
8 | CS(=O)(=O)NCCn1c(=O)c2cc(F)ccc2n2c(=S)[nH]nc12 [compound 75] | >53 µg/mL | >30 min | – | – | – | – | – | – | – | population of rounded cells with mitotically arrested or apoptotic chromosome morphologies (HeLa cells): approximately 60%; Plk1 signals delocalized from centrosomes ([8]; 25 μM, 2 h): greater than 70%; Plk1 signals delocalized from kinetochores ([8]; 25 μM, 2 h): > 90%; effect on Plk1 localization ([8]; 25 μM, 2 h): greatly diminished Plk1 signal intensities at both centrosomes and kinetochores; GI50 [1]: 4.1 µM
9 | CCCn1c(=O)c2cccc(F)c2n2c(SC)nnc12 [compound 145, 9-fluoro-1-(methylthio)-4-propyl-[1,2,4]triazolo[4,3-a]quinazolin-5(4H)-one] | – | – | – | – | – | – | – | – | – | half-life at 20 µM [9]: 0.363 ± 0.101 h
10 | CCCn1c(=O)c2cc(F)ccc2n2c(=S)[nH]nc12 [compound 64, 7-fluoro-4-propyl-1-thioxo-2,4-dihydro-[1,2,4]triazolo[4,3-a]quinazolin-5(1H)-one] | >28 µg/mL | >30 min | lacked a detectable level of cellular response | > 2 h | > 2 h | 2 h | > 2 h | > 2 h | > 2 h | PAMPA (PAMPA permeability): 195 ×10⁻⁶ cm/s
